The values that follow come from patent US6440710B1, “Antibody-catalyzed deuteration, tritiation, dedeuteration or detritiation of carbonyl compounds” (The Scripps Research Institute, priority 1998, dated 2002).

In the test the test system is antibody 38C2. The experiment in a line: antibody 38C2-catalyzed deuterium exchange (deuteration) of ketones and aldehydes in D2O, kinetics by GCMS or 1H-NMR. It is filed as biochemical. As to conditions: for Km / kcat: 38C2-catalyzed deuteration, D2O, pD 7.4, 25° C.; for Km: Lineweaver-Burk analysis (GCMS); for kcat: per exchange of one hydrogen atom; for kcat/kun: rate enhancement over uncatalyzed background reaction (followed 5 months at 25° C.). On the procedure: Series of reactions were carried out in a 0.1 ml solution containing the appropriate concentration of the carbonyl substrate and antibody 38C2(1.33 μM in the case of cycloheptanone and heptanal, 2.67 μM in the case of 2-heptanone) which was previously dialyzed three times against 0.1 M NaCl in D2O. The reaction mixtures were kept at 25° C. for 10 minutes and then quenched with dichloromethane. The organic layer was separated and analyzed by GCMS (Chemical Ionization) where the different isotopic masses were monitored and integrated. All kinetic parameters are calculated per exchange of one deuterium atom. No background reactions could be detected under these conditions.
The issue of kinetic analyses of these catalytic reactions and structure determination of the deuterium labeled products is not trivial. The common chromatographic methods, such as HPLC, used to monitor protein-catalyzed organic reactions that are carried out at very low concentrations, are not applicable to isotope exchange reactions. Work at low concentrations, at the range of the antibody's Km, is required in order to establish the kinetic parameters of the antibody catalyzed reaction. Consequently, alternative methods such as mass spectrometry and NMR are required. For NMR spectroscopy, deuterated substrates were used and the exchange of ^2H and ^1H was followed by ^1H-NMR. This allows for monitoring the reaction in real time in the presence of antibody and buffer solution. The experiments were carried out in relatively high substrate concentrations, due to the limited sensitivity of the instrument. Most experiments employed deuterated acetonitrile as an internal standard that enables one to quantify the results. It will be appreciated that the employment of NMR techniques is valuable not only for kinetic studies but also for determining the product's stereochemistry as well as the regio, chemo- and enantioselectivity of the reaction.
All reactions were carried out in D2O under neutral conditions (pD 7.4) in the presence of catalytic amounts of the commercially available 38C2 antibody.
The exchange reaction was followed either by mass spectrometry (GCMS.) or by ^1H-NMR. The high sensitivity of the GCMS method with respect to substrate concentration allowed for determination of the kinetic parameters of these reactions (Km and kcat) using Lineweaver-Burk analysis. These measurements are presented in Table 1 hereinunder and FIG. 5.
Although all NMR measurements were carried out under substrate saturation conditions (allowing only for determination of Vmax and kcat, Table 1, above), as further detailed hereinunder, this method provided useful information about the regioselectivity of the reaction in the cases of non-symmetrical ketones and chemoselectivity with polyfunctional carbonyl compounds.
14. The rate of the uncatalyzed reaction was determined by averaging the results of five experiments for each substrate. All reaction mixtures, containing the appropriate substrate (200 μM) and NaCl (0.1 M) in D2O (0.1 mL), were monitored by GCMS-CI. Approximately 1-2% yield was observed after 5 months at 25° C.

Broadly, the Km is the concentration of substrate that gives half-maximal velocity. What is called kcat is the number of substrate molecules converted per active site and unit of time at saturation.

With `CCCCCC(C)=O` [2-Heptanone, 3, 2-Heptanone], the Km was 16 mM, the kcat is 0.0583 s⁻¹ and the kcat/kun is 6.94 × 10^7.

With `CC(=O)C(C)(C)C` [3,3-dimethylbutan-2-one], for the setting “data not shown”, the “reactivity in the 38C2-catalyzed deuterium exchange reaction” value is listed as “absolute inertness”.

For `CC(C)=O` [Acetone, 1, Acetone], the kcat is 0.0433 s⁻¹.

In the case of `CCC(C)=O` [Butanone, 2, Butanone], the kcat is 0.0517 s⁻¹.

`O=C1CCCCCC1` [Cycloheptanone, 10, Cycloheptanone]: the Km came to 4.6 mM, the kcat is 0.232 s⁻¹ and the kcat/kun is 1.1 × 10^8.

For `O=C1CCCCC1` [Cyclohexanone, 9, Cyclohexanone], the Michaelis-Menten constant (Km) is 5.2 mM, the kcat turned out to be 3.233 s⁻¹ and the kcat/kun is 5.9 × 10^8.

In the case of `O=C1CCCC1` [Cyclopentanone, 8, Cyclopentanone], the kcat was 0.102 s⁻¹.

Consider `CCCCCCCCCC=O` [Decanal, 6, Decanal], for which the Km was determined as 0.68 mM and the kcat amounted to 0.0667 s⁻¹.

On to `CCOC(=O)CCCC(C)=O` [Ethyl 5-oxohexanoate, 7, Ethyl 5-oxohexanoate], for which the kcat came to 0.013 s⁻¹.

On to `CCCCCCC=O` [Heptanal, 5, Heptanal], for which the Km is 3.5 mM and the kcat turned out to be 0.753 s⁻¹.

Turning to `CCCCC=O` [Valeraldehyde, 4, Valeraldehyde], the kcat came to 0.0567 s⁻¹.

Regarding `CC(=O)CC(C)=O` [acetylacetone, reference compound], the “inhibition of the 38C2-catalyzed deuterium exchange reaction” value (all cases studied by GCMS) is recorded as “effectively inhibited”.
